Data on seven compounds can be found in publication PMC5676250, “Cholesterol-directed nanoparticle assemblies based on single amino acid peptide mutations activate cellular uptake and decrease tumor volume” (Chemical Science, 2017).

For one data set, the system named is SKOV-3 cells. Description: MTT assay of endocytosis inhibitors, 40 min. Format: cell-based. As for the experimental part:
The cytotoxicity was tested using an MTT assay. […] A combined solution of 5 mg mL^-1 MTT/PBS (10 μL per well) was added to each well of the 96-well plate assay, and the cells were incubated for an additional 4 hours. Formazan extraction was performed with DMSO and quantified colorimetrically using a Synergy H4 Hybrid Microplate reader (Biotek, USA), which was used to measure the OD 490 nm (absorbance value). The following formula was used to calculate the viability of cell growth: viability (%) = (mean of absorbance value of treatment group-blank/mean absorbance value of control-blank) × 100 (MTT was purchased from Sigma-Aldrich).
(Tetrazolium assays rely on reduction of a dye to a coloured formazan, in cell work by metabolically active cells.)

In data set [1] the test system is SKOV-3 ovarian cancer cells. To be noted: 24 h. As for the experimental part: SKOV-3 cells were seeded in a 35 mm petri dish with a glass cover slide and allowed […]
A further data set in a line: in vitro. The settings on record: mouse, serum, pH 8.2. As for the experimental part:
A 1.5 mL mixture consisting of 30 μL mouse serum, 750 μL of peptides (1 mg mL^–1) and 1470 μL of digestion buffer (pH 8.2, 50 mM Tris, 20 mM CaCl2) was incubated at 37 °C for 16 h. Peptides treated with digestion buffer served as controls. Aliquots of 400 μL were withdrawn from the mixture and quenched with 400 μL of 1% trifluoroacetic acid (TFA) solution at 1 h, 8 h and 16 h. The quenched solution was analysed by reverse-phase high performance liquid chromatography (RP-HPLC). […]
to adhere overnight at 37 °C under 5% CO2. The cell culture medium was then removed and replaced with fresh McCoy’s 5A medium containing HAL-2 (10 μM) or HAL-C (10 μM) for 1 h. After the medium was removed and the cells were washed with PBS (1 mL × 3 times), 1 mL of PBS containing 4 μL staining solution was added for 1 h.
The cells were then washed with PBS (1 mL × 3 times) before imaging. Cell fluorescence images were obtained with a confocal laser scanning microscope. […] for Tubulin-Trakcer Red: excitation: 561 nm, emission collected: 570 -620 nm; Blue channel for DAPI: excitation: 405 nm, emission collected: 425 -475 nm. (Tubulin-Trakcer Red were purchased from Beyotime Biotechnology) […]
SKOV-3 cells were seeded in a 35 mm petri dish with a glass cover slide and allowed to adhere overnight at 37 °C under 5% CO2. […] Cell fluorescence images were obtained with a confocal laser scanning microscope. […]
A 1.5 mL mixture consisting of 30 μL serum, 750 μL of peptides (1 mg/mL) , and 1470 μL of digestion buffer (pH 8.2, 50 mM Tris, 20 mM CaCl 2 ) was incubated at 37 °C for 16 h. […] The quenched solution was analyzed by reverse -phase […]
In vivo antitumor studies: When the tumors reached a mean volume of 50 mm 3 after inoculation of SKOV-3 cells, the mice were randomly separated into three groups (N=3/group): (1) negative control (PBS); (2) HAL-2; (3) HAL-C. […] During therapy, the tumor volumes and body weights were measured every two days. Length and width of tumors were measured individually using a Vernier caliper. Tumor volumes were calculated using the following formula: tumor volume = length × width 2 × 0.5. […]

The mark [2] stands for this setting: MTT, 40 min incubation, tested inhibitor concentrations (Fig. S17).

Read-outs that look alike come from different tables or passages of the source. Residues, ends and D or L forms follow the SMILES beside them. No end group written: not given here. *: point of attachment. X1 = CC(C)CCC[C@@H](C)[C@H]1CC[C@H]2[C@@H]3CC=C4C[C@@H](OCC(=O)*)CC[C@]4(C)[C@H]3CC[C@]12C

In the case of `N=C(N)NC(=O)c1nc(Cl)c(N)nc1N` [AM, amiloride], the “decrease of SKOV-3 cell viability” value in the data set on SKOV-3 cells (setting [2]) was 20%.

On to `CN(C)CCCN1c2ccccc2Sc2ccc(Cl)cc21` [CPZ, chlorpromazine], for which, in the data set with SKOV-3 cells (setting [2]), the “decrease of SKOV-3 cell viability” value was determined as 38%.

For the compound `CC[C@H](C)[C@H](NC(=O)[C@H](Cc1c[nH]cn1)NC(=O)[C@H](CCCCNC(=O)CO[C@H]1CC[C@@]2(C)C(=CC[C@H]3[C@@H]4CC[C@H]([C@H](C)CCCC(C)C)[C@@]4(C)CC[C@@H]32)C1)NC(=O)[C@H](CC(C)C)NC(=O)[C@H](CC(C)C)NC(=O)[C@H](CO)NC(=O)[C@H](CCSC)NC(=O)[C@H](Cc1c[nH]c2ccccc12)NC(=O)[C@H](CCCCN)NC(=O)CN)C(=O)N[C@@H](CC(C)C)C(=O)N[C@@H](CCCCN)C(N)=O` [HAL-B] (H-GKWMSLLK(X1)HILK-NH2), the midpoint of inhibition in data set [1], the IC50, lay at 24.6 ± 0.1 µM.

With `CC[C@H](C)[C@H](NC(=O)[C@H](Cc1c[nH]cn1)NC(=O)[C@H](CCCCN)NC(=O)[C@H](CC(C)C)NC(=O)[C@H](CCCCNC(=O)CO[C@H]1CC[C@@]2(C)C(=CC[C@H]3[C@@H]4CC[C@H]([C@H](C)CCCC(C)C)[C@@]4(C)CC[C@@H]32)C1)NC(=O)[C@H](CO)NC(=O)[C@H](CCSC)NC(=O)[C@H](Cc1c[nH]c2ccccc12)NC(=O)[C@H](CCCCN)NC(=O)CN)C(=O)N[C@@H](CC(C)C)C(=O)N[C@@H](CCCCN)C(N)=O` [HAL-C] (H-GKWMSK(X1)LKHILK-NH2), inhibition in data set [1] was half-maximal at 12.7 ± 0.1 µM (IC50).

Take `CSCC[C@H](NC(=O)[C@H](Cc1c[nH]c2ccccc12)NC(=O)[C@H](CCCCN)NC(=O)CN)C(=O)N[C@@H](CO)C(=O)N[C@@H](CC(C)C)C(=O)N[C@@H](CC(C)C)C(=O)N[C@@H](CCCCN)C(=O)N[C@@H](Cc1c[nH]cn1)C(=O)N[C@@H](CCCCNC(=O)CO[C@H]1CC[C@@]2(C)C(=CC[C@H]3[C@@H]4CC[C@H]([C@H](C)CCCC(C)C)[C@@]4(C)CC[C@@H]32)C1)C(=O)N[C@@H](CC(C)C)C(=O)N[C@@H](CCCCN)C(N)=O` [HAL-D] (H-GKWMSLLKHK(X1)LK-NH2): the IC50 (commonly the concentration that inhibits the measured activity by half) in data set [1] was found to be 16.2 ± 0.1 µM.

GKWMSLLKHILK-NH2 [HAL-2]: in “in vitro”, the fraction remaining – broadly, what is left of the initial amount, in per cent – at 1 h amounted to 55.4%; the share remaining at 8 h amounted to 29.4%; the amount remaining at 16 h came out at 11.2%. The same compound registered an IC50 in data set [1] of 54.1 ± 0.5 µM.

methyl-beta cyclodextrin [MBCD]: in the data set on SKOV-3 cells, the “decrease of SKOV-3 cell viability” value is listed as “no significant effects”.
